Experiment: Two-fold Williamson etherification: BINOL bis(chloroethoxyethyl ether) (Me/H/iPr-6_2) + BINOL bisphenol (Me/H/iPr-2), 1:1, Cs2CO3 (3.2 equiv); ring closure = phenoxide O-alkylation by alkyl chloride
Conditions: the molecule shown is the open-chain precursor; 42-membered ring; MeCN; 9.0 mM; 85.0 °C; 6.0 h
In the case of `COCOc1c(-c2ccc(OCCOCCCl)cc2)cc2ccccc2c1-c1c(OCOC)c(-c2ccc(OCCOCCOc3c(C(C)C)cc(-c4cc5ccccc5c(-c5c(OCOC)c(-c6cc(C(C)C)c(O)c(C(C)C)c6)cc6ccccc56)c4OCOC)cc3C(C)C)cc2)cc2ccccc12` [(R,S)-HiPr-M2_2 ((R)-H unit, (S)-iPr unit)], the ring closure, isolated yield is reported as 48.9%. `COCOc1c(-c2ccc(OCCOCCCl)cc2)cc2ccccc2c1-c1c(OCOC)c(-c2ccc(OCCOCCOc3c(C(C)C)cc(-c4cc5ccccc5c(-c5c(OCOC)c(-c6cc(C(C)C)c(O)c(C(C)C)c6)cc6ccccc56)c4OCOC)cc3C(C)C)cc2)cc2ccccc12` [(S,S)-HiPr-M2_2] gave a ring closure, isolated yield of 72.7%. `COCOc1c(-c2ccc(O)cc2)cc2ccccc2c1-c1c(OCOC)c(-c2ccc(OCCOCCOc3ccc(-c4cc5ccccc5c(-c5c(OCOC)c(-c6ccc(OCCOCCCl)cc6)cc6ccccc56)c4OCOC)cc3)cc2)cc2ccccc12` [H-M2_2] gave a ring closure, isolated yield of 77.8%. For `COCOc1c(-c2cc(C)c(O)c(C)c2)cc2ccccc2c1-c1c(OCOC)c(-c2cc(C)c(OCCOCCOc3c(C)cc(-c4cc5ccccc5c(-c5c(OCOC)c(-c6cc(C)c(OCCOCCCl)c(C)c6)cc6ccccc56)c4OCOC)cc3C)c(C)c2)cc2ccccc12` [Me-M2_2], the ring closure, isolated yield was 59.4%. For `COCOc1c(-c2cc(C(C)C)c(O)c(C(C)C)c2)cc2ccccc2c1-c1c(OCOC)c(-c2cc(C(C)C)c(OCCOCCOc3c(C(C)C)cc(-c4cc5ccccc5c(-c5c(OCOC)c(-c6cc(C(C)C)c(OCCOCCCl)c(C(C)C)c6)cc6ccccc56)c4OCOC)cc3C(C)C)c(C(C)C)c2)cc2ccccc12` [iPr-M2_2], the ring closure, isolated yield was 76.5%.

Experiment: Two-fold Williamson etherification: 3,3'-bis(4-hydroxyaryl)-BINOL-MOM diol (Me/H/iPr-2) + oligoethylene glycol bistosylate (1 equiv), Cs2CO3 (ca. 2-2.5 equiv); ring closure = phenoxide O-alkylation by tosylate
Conditions: the molecule shown is the open-chain precursor; 30-membered ring; MeCN; 1.0 mM; 85.0 °C
Compound `COCOc1c(-c2ccc(O)cc2)cc2ccccc2c1-c1c(OCOC)c(-c2ccc(OCCOCCOCCOCCOCCOS(=O)(=O)c3ccc(C)cc3)cc2)cc2ccccc12` [H-M1_5] has a ring closure, isolated yield of 11%. `COCOc1c(-c2cc(C)c(O)c(C)c2)cc2ccccc2c1-c1c(OCOC)c(-c2cc(C)c(OCCOCCOCCOCCOCCOS(=O)(=O)c3ccc(C)cc3)c(C)c2)cc2ccccc12` [Me-M1_5] showed a ring closure, isolated yield of 21.1%. `COCOc1c(-c2cc(C(C)C)c(O)c(C(C)C)c2)cc2ccccc2c1-c1c(OCOC)c(-c2cc(C(C)C)c(OCCOCCOCCOCCOCCOS(=O)(=O)c3ccc(C)cc3)c(C(C)C)c2)cc2ccccc12` [iPr-M1_5] gave a ring closure, isolated yield of 19.6%.

Same assay, conditions: the molecule shown is the open-chain precursor; 33-membered ring; MeCN; 1.0 mM; 85.0 °C
For `COCOc1c(-c2ccc(O)cc2)cc2ccccc2c1-c1c(OCOC)c(-c2ccc(OCCOCCOCCOCCOCCOCCOS(=O)(=O)c3ccc(C)cc3)cc2)cc2ccccc12` [H-M1_6], the ring closure, isolated yield was 29.7%. For `COCOc1c(-c2cc(C)c(O)c(C)c2)cc2ccccc2c1-c1c(OCOC)c(-c2cc(C)c(OCCOCCOCCOCCOCCOCCOS(=O)(=O)c3ccc(C)cc3)c(C)c2)cc2ccccc12` [Me-M1_6], the ring closure, isolated yield was 53.7%. With `COCOc1c(-c2cc(C(C)C)c(O)c(C(C)C)c2)cc2ccccc2c1-c1c(OCOC)c(-c2cc(C(C)C)c(OCCOCCOCCOCCOCCOCCOS(=O)(=O)c3ccc(C)cc3)c(C(C)C)c2)cc2ccccc12` [iPr-M1_6] the ring closure, isolated yield was 41.2%.

Same assay, conditions: the molecule shown is the open-chain precursor; 36-membered ring; MeCN; 1.0 mM; 85.0 °C
Work on `COCOc1c(-c2ccc(O)cc2)cc2ccccc2c1-c1c(OCOC)c(-c2ccc(OCCOCCOCCOCCOCCOCCOCCOS(=O)(=O)c3ccc(C)cc3)cc2)cc2ccccc12` [H-M1_7] yielded a ring closure, isolated yield of 32.1%. In the case of `COCOc1c(-c2cc(C)c(O)c(C)c2)cc2ccccc2c1-c1c(OCOC)c(-c2cc(C)c(OCCOCCOCCOCCOCCOCCOCCOS(=O)(=O)c3ccc(C)cc3)c(C)c2)cc2ccccc12` [Me-M1_7], the ring closure, isolated yield is reported as 75%. Work on `COCOc1c(-c2cc(C(C)C)c(O)c(C(C)C)c2)cc2ccccc2c1-c1c(OCOC)c(-c2cc(C(C)C)c(OCCOCCOCCOCCOCCOCCOCCOS(=O)(=O)c3ccc(C)cc3)c(C(C)C)c2)cc2ccccc12` [iPr-M1_7] yielded a ring closure, isolated yield of 45.5%.

Same assay, conditions: the molecule shown is the open-chain precursor; 39-membered ring; MeCN; 1.0 mM; 85.0 °C
In the case of `COCOc1c(-c2ccc(O)cc2)cc2ccccc2c1-c1c(OCOC)c(-c2ccc(OCCOCCOCCOCCOCCOCCOCCOCCOS(=O)(=O)c3ccc(C)cc3)cc2)cc2ccccc12` [H-M1_8], the ring closure, isolated yield is reported as 40.3%. For `COCOc1c(-c2cc(C)c(O)c(C)c2)cc2ccccc2c1-c1c(OCOC)c(-c2cc(C)c(OCCOCCOCCOCCOCCOCCOCCOCCOS(=O)(=O)c3ccc(C)cc3)c(C)c2)cc2ccccc12` [Me-M1_8], the ring closure, isolated yield was 38.2%. For `COCOc1c(-c2cc(C(C)C)c(O)c(C(C)C)c2)cc2ccccc2c1-c1c(OCOC)c(-c2cc(C(C)C)c(OCCOCCOCCOCCOCCOCCOCCOCCOS(=O)(=O)c3ccc(C)cc3)c(C(C)C)c2)cc2ccccc12` [iPr-M1_8], the ring closure, isolated yield was 53.3%.

— publication PMC12415923
